The values below are quoted from earlier work in paper PMC7751758, “Repurposing Sigma-1 Receptor Ligands for COVID-19 Therapy?” (Frontiers in Pharmacology, 2020).

Series [1] concerns HCV-induced cytopathic effect on the engineered cell line n4mBid. To be noted: leads of the cell protection screen; ref Chockalingam et al., 2010.
In the next series the target is Sigma-1 receptor. To be noted: for IC50: read-out: Sigma-1 receptor affinity IC50; for Ki: read-out: Sigma-1 receptor affinity Ki.
The test system of the next series is CHIKV. To be noted: cytopathic effect induced by Chikungunya virus and other alphaviruses (Semliki Forest virus and Sindbis virus). On the technique in general: Cytopathic effects are the visible damage that an infection or toxin causes in cultured cells.
The subject of a further series is HCV infection. The conditions noted are these: without significantly reducing cell biomass; ref Mingorance et al., 2014.
Series [2] deals with HCV infection of human hepatocarcinoma Huh-7 cells. The conditions noted are these: absence of cytotoxicity at low micromolar and submicromolar concentrations; ref Gastaminza et al., 2010.
The test system of a further series is EBV. To be noted: infection of B lymphocytes, ref Nemerow and Cooper, 1984, listed as promethazine.

Where “and” joins values, the source holds several entries; their conditions need not be identical. Equal entries are not always repeated. Entries after “also recorded” stand apart in the source; their conditions may differ. Where two headings read alike, the source gives them in different places.

With `CNCCCC1c2ccccc2C=Cc2ccccc21` [Protriptyline], the “alleviation of HCV-induced cytopathic effect (n4mBid cell viability relative to untreated cells)” value in [1] is on record as “increase n4mBid cell viability”. In addition, on Sigma-1 receptor, the IC50 (commonly the point on the concentration scale where inhibition reaches its midpoint) was 307 nM.

Consider `CSc1ccc2c(c1)N(CCC1CCCCN1C)c1ccccc1S2` (centres unmarked) [Thioridazine], for which the “Antiviral activity: Virus” value with EBOV is reported as “active”; with CHIKV (ref Pohjala et al., 2011, listed as thioridazine), “inhibition of the cytopathic effect”.

For `CN(C)CCCN1c2ccccc2CCc2ccc(Cl)cc21` [Clomipramine], in the series on HCV infection, the “reduction of HCV infection” value is given as “more than one order of magnitude”. The “Antiviral activity: Virus” value in the series with MERS-CoV is listed as “in vitro activity”; in the series with EBOV, “active”; with SARS-CoV, “in vitro activity; also recorded: SARS-CoV SARS-CoV-2”.

As to `CC(=O)c1ccc2c(c1)N(CCCN1CCC(CCO)CC1)c1ccccc1S2` [Piperacetazine], the “Antiviral activity: Virus” value in the series with EBOV is recorded as “active”. For the same compound, on Sigma-1 receptor, the IC50 was 823 nM.

`O=[N+]([O-])c1ccc2nc(N3CCNCC3)ccc2c1` [Quipazine-6N]: the “alleviation of HCV-induced cytopathic effect (n4mBid cell viability relative to untreated cells)” value in [1] is on record as “increase n4mBid cell viability”. Also, the IC50 at Sigma-1 receptor is 1250 nM.

In the case of `OCCN1CCN(CCCN2c3ccccc3Sc3ccc(Cl)cc32)CC1` [Perphenazine], the “reduction of HCV infection” value in the series on HCV infection was “more than one order of magnitude”. Besides, in series [1], the “alleviation of HCV-induced cytopathic effect (n4mBid cell viability relative to untreated cells)” value is “increase n4mBid cell viability”. For the same compound, the “Antiviral activity: Virus” value in the series with CHIKV (ref Pohjala et al., 2011, listed as perphenazine) is “inhibition of the cytopathic effect”.

On to `OCCN1CCN(CCCN2c3ccccc3Sc3ccc(C(F)(F)F)cc32)CC1` [Fluphenazine], for which the “Antiviral activity: Virus” value in the series with MERS-CoV was “in vitro activity”; in the series with EBOV, “active”; with SARS-CoV it was “in vitro activity; also recorded: SARS-CoV SARS-CoV-2”. In series [2], the “reduction in HCV infection of Huh-7 cells, as compared to the vehicle DMSO control” value (shortened to “reduction in HCV infection”) was more than 85%.

`CN(C)CCCN1c2ccccc2CCc2ccccc21` [Imipramine]: in the series with HCV infection, the “reduction of HCV infection” value is “more than one order of magnitude”. On Sigma-1 receptor, the IC50 is 529 nM and the Ki (in general, a dissociation constant, usually derived from enzyme kinetics or from competition with a known ligand) is 343 nM.

For `CC(C)N1CCN(c2ccc(OCC3COC(Cn4cncn4)(c4ccc(Cl)cc4Cl)O3)cc2)CC1` (centres unmarked) [Terconazole], the “Antiviral activity: Virus” value was “in vitro activity” in the series with MERS-CoV, “active” with EBOV and “in vitro activity; also recorded: SARS-CoV SARS-CoV-2” in the series with SARS-CoV. At Sigma-1 receptor, the IC50 is 159 nM.

On to `CCN(CC)CCOc1ccc(C(=C(Cl)c2ccccc2)c2ccccc2)cc1` [Clomiphene], for which the “reduction of HCV infection” value in the series with HCV infection is reported as “more than one order of magnitude”. Moreover, in the series on EBOV, the “Antiviral activity: Virus” value is “active”. For the same compound, in the series on Ebola virus (EBOV), the cellular toxicity is listed as less than 30% and the viral inhibition is more than 50%.

`Oc1cc2c(cc1O)C(c1ccccc1)CNCC2` (centres unmarked) [SKF-38393]: in series [1], the “alleviation of HCV-induced cytopathic effect (n4mBid cell viability relative to untreated cells)” value was “increase n4mBid cell viability”.

In the case of `CC/C(=C(\c1ccccc1)c1ccc(OCCN(C)C)cc1)c1ccccc1` [Tamoxifen], the “reduction of HCV infection” value in the series on HCV infection is “more than one order of magnitude”. Moreover, the “Antiviral activity: Virus” value is reported as “in vitro activity” with MERS-CoV and “in vitro activity; also recorded: SARS-CoV SARS-CoV-2” with SARS-CoV.

As to `CN(C)CCCN1c2ccccc2Sc2ccc(C(F)(F)F)cc21` [Triflupromazine], in the series with MERS-CoV, the “Antiviral activity: Virus” value was “in vitro activity”. The “alleviation of HCV-induced cytopathic effect (n4mBid cell viability relative to untreated cells)” value in series [1] is on record as “increase n4mBid cell viability”. Besides, the “Antiviral activity: Virus” value in the series on SARS-CoV is “in vitro activity”. Further, at Sigma-1 receptor, the IC50 was 470 nM and 605 nM; the Ki is 154 nM.

For `CN(C)CCC=C1c2ccccc2COc2ccccc21` [Doxepin], the “Antiviral activity: Virus” value with CHIKV (ref Pohjala et al., 2011, listed as doxepin) is listed as “inhibition of the cytopathic effect”. The “reduction in HCV infection” value in [2] is recorded as more than 85%.

With `CC(C)(C)[C@]1(O)CCN2C[C@H]3c4ccccc4CCc4cccc(c43)[C@@H]2C1` [butaclamol], the “alleviation of HCV-induced cytopathic effect (n4mBid cell viability relative to untreated cells)” value in [1] is “increase n4mBid cell viability”.

Consider `CCN(CC)CCCC(C)Nc1c2ccc(Cl)cc2nc2ccc(OC)cc12` (centres unmarked) [Quinacrine], for which the “Antiviral activity: Virus” value in the series with EBOV is on record as “active”. In addition, the IC50 at Sigma-1 receptor was 953 nM.

In the case of `OCCOCCN1CCN(C(c2ccccc2)c2ccc(Cl)cc2)CC1` (centres unmarked) [Hydroxyzine], in the series with HCV infection, the “reduction of HCV infection” value was “more than one order of magnitude”. On Sigma-1 receptor, the IC50 is 342 nM and the Ki is 46 nM.

For `CN1CCC(CN2c3ccccc3Sc3ccccc32)C1` (centres unmarked) [Methdilazine], the “Antiviral activity: Virus” value in the series with CHIKV (ref Pohjala et al., 2011, listed as methdilazine) is “inhibition of the cytopathic effect”. Besides, on Sigma-1 receptor, the IC50 is 167 nM.

In the case of `OC(CCN1CCCCC1)(c1ccccc1)C1CC2C=CC1C2` (centres unmarked) [biperiden], the “alleviation of HCV-induced cytopathic effect (n4mBid cell viability relative to untreated cells)” value in [1] is given as “increase n4mBid cell viability”.

In the case of `Cc1nc2sccn2c(=O)c1CCN1CCC(=C(c2ccc(F)cc2)c2ccc(F)cc2)CC1` [Ritanserin], the “alleviation of HCV-induced cytopathic effect (n4mBid cell viability relative to untreated cells)” value in [1] is on record as “increase n4mBid cell viability”. For the same compound, the IC50 on Sigma-1 receptor is 190 nM.

`COc1ccc(CCN2CCC(Nc3nc4ccccc4n3Cc3ccc(F)cc3)CC2)cc1` [Astemizole]: the “Antiviral activity: Virus” value in the series with MERS-CoV is recorded as “in vitro activity”; in the series on EBOV, “active”; in the series on SARS-CoV, “in vitro activity”.

Regarding `CNCCCN1c2ccccc2CCc2ccccc21` [Desipramine], the “reduction of HCV infection” value with HCV infection was “more than one order of magnitude”. On Sigma-1 receptor, the IC50 is 1190 nM and the Ki was 1990 nM.

As to `CN(C)CCOc1ccc(/C(=C(/CCCl)c2ccccc2)c2ccccc2)cc1` [Toremifene], the figures for the “Antiviral activity: Virus” value with MERS-CoV, with EBOV and in the series with SARS-CoV were “in vitro activity”, “active” and “in vitro activity; also recorded: SARS-CoV SARS-CoV-2”, respectively. For the same compound, the “reduction in HCV infection” value in [2] is reported as more than 85%. Further, the IC50 on Sigma-1 receptor was 220 nM.

Take `CNCCCC12CCC(c3ccccc31)c1ccccc12` [Maprotiline]: the “Antiviral activity: Virus” value in the series on EBOV is on record as “active”.

In the case of `CN(CCCN1c2ccccc2CCc2ccccc21)CC(=O)c1ccc(Cl)cc1` [Lofepramine], the “reduction in HCV infection” value in series [2] is given as more than 85%. Further, the “Sigma-1 receptor affinity, inhibition” value in the series with Sigma-1 receptor (at 10 µM) is 100% inh. at 10 µM. At Sigma-1 receptor, the Ki was 2520 nM.

As to `O=C(c1ccc(OCCN2CCCCC2)cc1)c1c(-c2ccc(O)cc2)sc2cc(O)ccc12` [Raloxifene], in the series on HCV infection, the “reduction of HCV infection” value is listed as “more than one order of magnitude”. Moreover, the “alleviation of HCV-induced cytopathic effect (n4mBid cell viability relative to untreated cells)” value in [1] is reported as “increase n4mBid cell viability”. At Sigma-1 receptor, the IC50 was 122 nM and the Ki was 38 nM.

Regarding `OCc1cc(C(O)CNCCCCCCOCCCCc2ccccc2)ccc1O` (centres unmarked) [Salmeterol], in series [2], the “reduction in HCV infection” value is more than 85%. In addition, on Sigma-1 receptor, the IC50 was 151 nM.

Consider `CCSc1ccc2c(c1)N(CCCN1CCN(C)CC1)c1ccccc1S2` [Thiethylperazine], for which the “Antiviral activity: Virus” value in the series on MERS-CoV is “in vitro activity”; with SARS-CoV it was “in vitro activity; also recorded: SARS-CoV SARS-CoV-2”; in the series on CHIKV (ref Pohjala et al., 2011, listed as thiethylperazine), “inhibition of the cytopathic effect”. The IC50 on Sigma-1 receptor is 528 nM.

As for `CN1[C@@H]2CC[C@H]1C[C@@H](OC(c1ccccc1)c1ccccc1)C2` [Benztropine], in the series with HCV infection, the “reduction of HCV infection” value was “more than one order of magnitude”. Besides, the figures for the “Antiviral activity: Virus” value in the series on MERS-CoV, in the series on EBOV and in the series on SARS-CoV were “in vitro activity”, “active” and “in vitro activity; also recorded: SARS-CoV SARS-CoV-2”, respectively. Moreover, the cellular toxicity in the series with Ebola virus (EBOV) is given as less than 30%. Also, the viral inhibition in the series on Ebola virus (EBOV) is on record as more than 50%.

On to `CNC1CC(c2ccc(Cl)c(Cl)c2)c2ccccc21` (centres unmarked) [Indatraline], for which the “reduction in HCV infection” value in series [2] is listed as more than 85%. The concentration for half-maximal inhibition (IC50) at Sigma-1 receptor was 737 nM.

Turning to `CC(CN1c2ccccc2Sc2ccccc21)N(C)C` (centres unmarked) [Promethazine], the “Antiviral activity: Virus” value with MERS-CoV is “in vitro activity”; in the series with EBV, “inhibit infection of B lymphocytes”; with SARS-CoV, “in vitro activity; also recorded: SARS-CoV SARS-CoV-2”. Besides, the IC50 at Sigma-1 receptor is 857 nM.

For the compound `CNCCC(Oc1ccc(C(F)(F)F)cc1)c1ccccc1` (centres unmarked) [Fluoxetine], in the series with HCV infection, the “reduction of HCV infection” value is “more than one order of magnitude”.

Consider `Cl.Cl.OCCN1CCN(CCC=C2c3ccccc3Sc3ccc(C(F)(F)F)cc32)CC1` (mixture of isomers) [Flupentixol], for which, in the series with EBOV, the “Antiviral activity: Virus” value is listed as “active”.

Consider `COc1ccc(CN2CCN(C(c3ccc(F)cc3)c3ccc(F)cc3)CC2)c(OC)c1OC` [Lomerizine], for which, in the series on EBOV, the “Antiviral activity: Virus” value is reported as “active”. Besides, on Sigma-1 receptor, the IC50 is 37 nM.

As to `COc1ccccc1OCCNCC(O)COc1cccc2[nH]c3ccccc3c12` (centres unmarked) [Carvedilol], the “reduction in HCV infection” value in [2] is more than 85%. Besides, on Sigma-1 receptor, the IC50 is 1570 nM.
